Legend:
[1] = test system: IFN-γ (human lymphoid cells); assay: IFN-γ production in primary mixed lymphocyte reaction (WISH cells/EMC virus assay); format: cell-based; parameters: IFN-γ: unit not given here; settings: for IFN-γ: 1° MLR
Description: Derivatives of succinylacetone were tested for immunosuppressive activity in several different types of assay systems. The first consisted of measuring the amounts of interleukin-2 (IL-2), and interferon-γ (IFN-γ) produced by human lymphoid cells in a mixed lymphocyte reaction. Low levels of these molecules in the reaction mixture indicate that the immune system is being suppressed by the subject succinylacetone derivatives.
IFN-γ was determined by measuring the amount of protection conveyed on human WISH cells against the cytopathic effects of encephalomyocarditis virus (EMC). This assay is described by I. A. Braude, J. of Immunol. Methods 63:237 (1983). Both publications are hereby incorporated by reference.
The mixed lymphocyte reaction assay can be carried out by techniques well known to those skilled in the art. L. Hudson and F. C. Huy, Practical Immunology, p. 260, Blackwell Scientific Publications (1976). Briefly this consists of isolating lymphocytes from human peripheral blood by standard density gradient centrifugation techniques from two separate individuals. Approximately 2×10^5 lymphocytes of each individual are combined to yield a total of 4×10^5 lymphocytes per culture. All procedures are carried out under sterile conditions, and the lymphocytes are isolated and kept in physiologically compatible solutions. To the mixture of lymphocytes is added a desired amount of an appropriate succinylacetone derivative, and after different times an aliquot of the mixture is removed and assayed for IL-2 or IFN-γ, or ^3 H-T is measured.

[2] = viability of peripheral blood lymphocytes with or without PHA, trypan blue exclusion; format: cell-based, human; settings: human, peripheral blood lymphocytes; for viability at 2200 µM: 2.2 mM; for viability at 6700 µM: 6.7 mM; for viability at 20000 µM: 20 mM
Description: (§1) Viability was determined using the trypan blue exclusion method well known in the art. […] The assays were conducted in duplicate wherein peripheral blood lymphocytes were isolated from two separate individuals, and then treated with or without phytohemagglutinin in the presence of various concentrations of the appropriate succinylacetone derivative.

[3] = test system: peripheral blood lymphocytes; assay: as above; format: cell-based, human
Description: as §1

**Q.** For `COC(=O)CCC(C(C)=O)C(C)=O` [Methyl 4-Acetyl-5-Oxohexanoate, methyl 4-acetyl-5-oxohexanoate], which IFN-γ ([1]; Exp I, 3 μM) is on record?
**A.** 1260

**Q.** What about the IFN-γ ([1]; Exp I, 9 μM) of the same molecule?
**A.** 1260

**Q.** And the IFN-γ ([1]; Exp I, 27 μM)?
**A.** 1260

**Q.** What about the IFN-γ ([1]; Exp I, 81 μM) of the same molecule?
**A.** 1313

**Q.** What about the IFN-γ ([1]; Exp I, 244 μM) of the same molecule?
**A.** 998

**Q.** And the IFN-γ ([1]; Exp I, 733 μM)?
**A.** 570

**Q.** And the IFN-γ ([1]; Exp I, 2.2 mM)?
**A.** 285

**Q.** And the IFN-γ ([1]; Exp I, 6.7 mM)?
**A.** < 285

**Q.** What about the IFN-γ ([1]; Exp I, 20 mM) of the same molecule?
**A.** < 285

**Q.** What about the IFN-γ ([1]; Exp II, 3 μM) of the same molecule?
**A.** 1144

**Q.** And the IFN-γ ([1]; Exp II, 9 μM)?
**A.** 1248

**Q.** What about the IFN-γ ([1]; Exp II, 27 μM) of the same molecule?
**A.** 1248

**Q.** What about the IFN-γ ([1]; Exp II, 81 μM) of the same molecule?
**A.** 1560

**Q.** What about the IFN-γ ([1]; Exp II, 244 μM) of the same molecule?
**A.** 1953

**Q.** And the IFN-γ ([1]; Exp II, 733 μM)?
**A.** 1172

**Q.** What about the IFN-γ ([1]; Exp II, 2.2 mM) of the same molecule?
**A.** 703

**Q.** What about the IFN-γ ([1]; Exp II, 6.7 mM) of the same molecule?
**A.** < 469

**Q.** What about the IFN-γ ([1]; Exp II, 20 mM) of the same molecule?
**A.** < 469

**Q.** What about the IC50 ([1]; Homo sapiens, Lymphocyte, primary MLR, read-out: concentration causing 50% reduction in IFN-γ production) of the same molecule?
**A.** ~2.2 mM

**Q.** And the viability at 3 µM ([2]; first individual, (+) PHA)?
**A.** 100%

**Q.** And the viability at 9 µM ([2]; first individual, (+) PHA)?
**A.** 100%

**Q.** What about the viability at 27 µM ([2]; first individual, (+) PHA) of the same molecule?
**A.** 100%

**Q.** What about the viability at 81 µM ([2]; first individual, (+) PHA) of the same molecule?
**A.** 100%

**Q.** And the viability at 244 µM ([2]; first individual, (+) PHA)?
**A.** 100%

**Q.** What about the viability at 733 µM ([2]; first individual, (+) PHA) of the same molecule?
**A.** 100%

**Q.** What about the viability at 2200 µM ([2]; first individual, (+) PHA) of the same molecule?
**A.** 100%

**Q.** And the viability at 6700 µM ([2]; first individual, (+) PHA)?
**A.** 100%

**Q.** And the viability at 20000 µM ([2]; first individual, (+) PHA)?
**A.** 100%

**Q.** And the viability at 3 µM ([2]; first individual, (-) PHA)?
**A.** 100%

**Q.** What about the viability at 9 µM ([2]; first individual, (-) PHA) of the same molecule?
**A.** 100%

**Q.** What about the viability at 27 µM ([2]; first individual, (-) PHA) of the same molecule?
**A.** 100%

**Q.** And the viability at 81 µM ([2]; first individual, (-) PHA)?
**A.** 100%

**Q.** What about the viability at 244 µM ([2]; first individual, (-) PHA) of the same molecule?
**A.** 100%

**Q.** And the viability at 733 µM ([2]; first individual, (-) PHA)?
**A.** 100%

**Q.** And the viability at 2200 µM ([2]; first individual, (-) PHA)?
**A.** 100%

**Q.** What about the viability at 6700 µM ([2]; first individual, (-) PHA) of the same molecule?
**A.** 100%

**Q.** What about the viability at 20000 µM ([2]; first individual, (-) PHA) of the same molecule?
**A.** 100%

**Q.** And the viability at 3 µM ([2]; second individual, (+) PHA)?
**A.** 100%

**Q.** And the viability at 9 µM ([2]; second individual, (+) PHA)?
**A.** 100%

**Q.** And the viability at 27 µM ([2]; second individual, (+) PHA)?
**A.** 100%

**Q.** And the viability at 81 µM ([2]; second individual, (+) PHA)?
**A.** 100%

**Q.** What about the viability at 244 µM ([2]; second individual, (+) PHA) of the same molecule?
**A.** 100%

**Q.** What about the viability at 733 µM ([2]; second individual, (+) PHA) of the same molecule?
**A.** 100%

**Q.** And the viability at 2200 µM ([2]; second individual, (+) PHA)?
**A.** 100%

**Q.** What about the viability at 6700 µM ([2]; second individual, (+) PHA) of the same molecule?
**A.** 100%

**Q.** And the viability at 20000 µM ([2]; second individual, (+) PHA)?
**A.** 100%

**Q.** What about the viability at 3 µM ([2]; second individual, (-) PHA) of the same molecule?
**A.** 100%

**Q.** What about the viability at 9 µM ([2]; second individual, (-) PHA) of the same molecule?
**A.** 100%

**Q.** And the viability at 27 µM ([2]; second individual, (-) PHA)?
**A.** 100%

**Q.** And the viability at 81 µM ([2]; second individual, (-) PHA)?
**A.** 100%

**Q.** And the viability at 244 µM ([2]; second individual, (-) PHA)?
**A.** 100%

**Q.** And the viability at 733 µM ([2]; second individual, (-) PHA)?
**A.** 100%

**Q.** And the viability at 2200 µM ([2]; second individual, (-) PHA)?
**A.** 100%

**Q.** And the viability at 6700 µM ([2]; second individual, (-) PHA)?
**A.** 100%

**Q.** What about the viability at 20000 µM ([2]; second individual, (-) PHA) of the same molecule?
**A.** 100%

**Q.** And the toxicity ([3]; as high as 20 mM)?
**A.** no toxicity

**Q.** And the Cells/ml ([3]; first individual, (+) PHA, 3 μM)?
**A.** 0.45 X 10^6 Cells/ml

**Q.** What about the Cells/ml ([3]; first individual, (+) PHA, 9 μM) of the same molecule?
**A.** 0.47 X 10^6 Cells/ml

**Q.** What about the Cells/ml ([3]; first individual, (+) PHA, 27 μM) of the same molecule?
**A.** 0.46 X 10^6 Cells/ml

**Q.** And the Cells/ml ([3]; first individual, (+) PHA, 81 μM)?
**A.** 0.38 X 10^6 Cells/ml

**Q.** And the Cells/ml ([3]; first individual, (+) PHA, 244 μM)?
**A.** 0.44 X 10^6 Cells/ml

**Q.** What about the Cells/ml ([3]; first individual, (+) PHA, 733 μM) of the same molecule?
**A.** 0.38 X 10^6 Cells/ml

**Q.** What about the Cells/ml ([3]; first individual, (+) PHA, 2.2 mM) of the same molecule?
**A.** 0.49 X 10^6 Cells/ml

**Q.** And the Cells/ml ([3]; first individual, (+) PHA, 6.7 mM)?
**A.** 0.46 X 10^6 Cells/ml

**Q.** What about the Cells/ml ([3]; first individual, (+) PHA, 20 mM) of the same molecule?
**A.** 0.49 X 10^6 Cells/ml

**Q.** And the Cells/ml ([3]; first individual, (-) PHA, 3 μM)?
**A.** 0.39 X 10^6 Cells/ml

**Q.** And the Cells/ml ([3]; first individual, (-) PHA, 9 μM)?
**A.** 0.55 X 10^6 Cells/ml

**Q.** And the Cells/ml ([3]; first individual, (-) PHA, 27 μM)?
**A.** 0.44 X 10^6 Cells/ml

**Q.** What about the Cells/ml ([3]; first individual, (-) PHA, 81 μM) of the same molecule?
**A.** 0.42 X 10^6 Cells/ml

**Q.** And the Cells/ml ([3]; first individual, (-) PHA, 244 μM)?
**A.** 0.40 X 10^6 Cells/ml

**Q.** What about the Cells/ml ([3]; first individual, (-) PHA, 733 μM) of the same molecule?
**A.** 0.37 X 10^6 Cells/ml

**Q.** What about the Cells/ml ([3]; first individual, (-) PHA, 2.2 mM) of the same molecule?
**A.** 0.57 X 10^6 Cells/ml

**Q.** What about the Cells/ml ([3]; first individual, (-) PHA, 6.7 mM) of the same molecule?
**A.** 0.57 X 10^6 Cells/ml

**Q.** What about the Cells/ml ([3]; first individual, (-) PHA, 20 mM) of the same molecule?
**A.** 0.5 X 10^6 Cells/ml

**Q.** And the Cells/ml ([3]; second individual, (+) PHA, 3 μM)?
**A.** 0.40 X 10^6 Cells/ml

**Q.** And the Cells/ml ([3]; second individual, (+) PHA, 9 μM)?
**A.** 0.50 X 10^6 Cells/ml

**Q.** And the Cells/ml ([3]; second individual, (+) PHA, 27 μM)?
**A.** 0.50 X 10^6 Cells/ml

**Q.** And the Cells/ml ([3]; second individual, (+) PHA, 81 μM)?
**A.** 0.40 X 10^6 Cells/ml

**Q.** What about the Cells/ml ([3]; second individual, (+) PHA, 244 μM) of the same molecule?
**A.** 0.54 X 10^6 Cells/ml

**Q.** What about the Cells/ml ([3]; second individual, (+) PHA, 733 μM) of the same molecule?
**A.** 0.40 X 10^6 Cells/ml

**Q.** What about the Cells/ml ([3]; second individual, (+) PHA, 2.2 mM) of the same molecule?
**A.** 0.50 X 10^6 Cells/ml

**Q.** And the Cells/ml ([3]; second individual, (+) PHA, 6.7 mM)?
**A.** 0.50 X 10^6 Cells/ml

**Q.** What about the Cells/ml ([3]; second individual, (+) PHA, 20 mM) of the same molecule?
**A.** 0.55 X 10^6 Cells/ml

**Q.** And the Cells/ml ([3]; second individual, (-) PHA, 3 μM)?
**A.** 0.44 X 10^6 Cells/ml

**Q.** And the Cells/ml ([3]; second individual, (-) PHA, 9 μM)?
**A.** 0.52 X 10^6 Cells/ml

**Q.** And the Cells/ml ([3]; second individual, (-) PHA, 27 μM)?
**A.** 0.50 X 10^6 Cells/ml

**Q.** What about the Cells/ml ([3]; second individual, (-) PHA, 81 μM) of the same molecule?
**A.** 0.46 X 10^6 Cells/ml

**Q.** And the Cells/ml ([3]; second individual, (-) PHA, 244 μM)?
**A.** 0.5 X 10^6 Cells/ml

**Q.** And the Cells/ml ([3]; second individual, (-) PHA, 733 μM)?
**A.** 0.41 X 10^6 Cells/ml

**Q.** What about the Cells/ml ([3]; second individual, (-) PHA, 2.2 mM) of the same molecule?
**A.** 0.54 X 10^6 Cells/ml

**Q.** And the Cells/ml ([3]; second individual, (-) PHA, 6.7 mM)?
**A.** 0.6 X 10^6 Cells/ml

**Q.** What about the Cells/ml ([3]; second individual, (-) PHA, 20 mM) of the same molecule?
**A.** 0.5 X 10^6 Cells/ml
